Assay results: patent US8404694B2, “Aurora kinase modulators and method of use” (Amgen Inc., priority 2008, dated 2013)

Legend:
AuroraA-TPX2 = biological target: T1, AuroraA-TPX2 (Homo sapiens, UniProt O14965); assay: AuroraA-TPX2 Homogeneous Time Resolved Fluorescent (HTRF) kinase assay; assay type: biochemical; conditions: ATP about 1 μM, biotinylated PLK peptide, read-out: AurA_IC50—IP (Avg)
T1 construct: 20 μL of AuroraA-TPX2 KD GST; GST
T1 sequence (O14965 133-383 limits assumed): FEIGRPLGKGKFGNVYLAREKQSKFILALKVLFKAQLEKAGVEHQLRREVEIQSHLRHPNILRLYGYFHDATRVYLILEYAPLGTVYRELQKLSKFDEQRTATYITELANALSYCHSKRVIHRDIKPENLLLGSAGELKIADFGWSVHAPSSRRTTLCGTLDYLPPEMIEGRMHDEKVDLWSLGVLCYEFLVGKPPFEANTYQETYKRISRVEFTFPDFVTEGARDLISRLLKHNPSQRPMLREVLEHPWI
T1 sequence (Q9ULW0 1-747 partner): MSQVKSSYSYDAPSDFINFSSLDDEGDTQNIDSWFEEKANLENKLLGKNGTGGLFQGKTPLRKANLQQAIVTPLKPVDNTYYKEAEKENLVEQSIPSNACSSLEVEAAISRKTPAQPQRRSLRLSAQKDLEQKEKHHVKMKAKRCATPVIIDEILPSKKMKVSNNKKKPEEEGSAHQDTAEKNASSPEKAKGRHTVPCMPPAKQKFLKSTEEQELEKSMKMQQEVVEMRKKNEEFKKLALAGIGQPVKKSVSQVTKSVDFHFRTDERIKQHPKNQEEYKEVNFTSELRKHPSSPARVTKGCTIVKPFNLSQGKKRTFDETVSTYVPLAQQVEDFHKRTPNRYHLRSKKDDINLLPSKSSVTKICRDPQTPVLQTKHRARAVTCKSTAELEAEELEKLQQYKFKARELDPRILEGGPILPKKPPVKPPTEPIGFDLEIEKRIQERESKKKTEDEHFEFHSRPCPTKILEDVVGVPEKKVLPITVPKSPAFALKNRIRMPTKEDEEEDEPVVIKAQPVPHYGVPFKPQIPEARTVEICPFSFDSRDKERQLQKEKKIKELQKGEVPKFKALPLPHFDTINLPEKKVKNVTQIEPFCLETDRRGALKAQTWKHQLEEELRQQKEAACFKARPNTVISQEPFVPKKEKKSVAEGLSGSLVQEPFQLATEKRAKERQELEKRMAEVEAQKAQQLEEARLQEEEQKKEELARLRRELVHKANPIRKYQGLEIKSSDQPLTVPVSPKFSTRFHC
Method: AuroraA-TPX2-Homogeneous Time Resolved Fluorescent (HTRF) Kinase Assay:
The Aurora-A HTRF assay begins with Aurora-A in the presence of ATP phosphorylating the biotinylated peptide PLK. The reaction incubates for about 120 min. Detection reagents are added to quench the reaction. These agents stop the reaction by diluting out the enzyme and chelating the metals due to the presence of EDTA. After addition, the assay is incubated overnight to allow the detection reagents to equilibrate.
The AuroraA HTRF assay comprises 1 μL of compound in 100% DMSO, 20 μL of ATP and biotinylated PLK, and 20 μL of AuroraA-TPX2 KD GST for a final volume of about 41 μL. The final concentration of PLK is about 1 μM. The final concentration of ATP is about 1 μM (Km(app)=1 μM+/−0.1) and the final concentration of AuroraA is about 5 nM. Buffer conditions are as follows: 60 mM HEPES pH 7.5, 25 mM NaCl, 10 mM MgCl, 2 mM DTT, 0.05% BSA.
(§1) The assay is quenched and stopped with 160 μL of detection reagent. Detection reagents are as follows: Buffer made of 50 mM Tris, pH 7.5, 100 mM NaCl, 3 mM EDTA, 0.05% BSA, 0.1% Tween20. Added to this buffer prior to reading is Steptavidin allophycocyanin (SA-APC) at a final conc in the assay of 0.0005 mg/mL, and europilated anti-phosphoPLK Ab (Eu-anti-PLK) at a final conc of 0.02 nM.
(§2) The assay plate is read in either a Discovery or a RubyStar. The eu-anti-PLK is excited at 320 nm and emits at 615 nm to excite the SA-APC which in turn emits at 655 nm. The ratio of SA-APC at 655 nm (excited due to close proximity to the Eu-anti-PLK because of phosphorylation of the peptide) to free Eu-anti-PLK at 615 nm will give substrate phosphorylation.
(§3) Many of the Examples described herein were tested, and found to be active compounds. Table I includes related biological data, which may be interpreted using the activity gauge below: […]

AuroraB = biological target: T2, AuroraB (Homo sapiens, UniProt Q96GD4); assay: AuroraB Homogeneous Time Resolved Fluorescent (HTRF) kinase assay; assay type: biochemical; conditions: ATP 23 μM, biotinylated Histone H3 peptide, read-out: AurB_IC50—IP (Avg)
T2 construct: 20 μL of AuroraB FL His; His
Method: AuroraB-Homogeneous Time Resolved Fluorescent (HTRF) Kinase Assay:
The AuroraB HTRF assay begins with AuroraB in the presence of ATP phosphorylating the biotinylated peptide Histone H3. The reaction incubates for about 90 min. the reaction is quenched by addition of detection reagents, which stop the reaction by diluting out the enzyme and chelating the metals due to the presence of EDTA. After addition, the assay is incubated for about 60 min to allow detection reagents to equilibrate.
The AuroraB HTRF assay comprises 1 μL of compound in 100% DMSO, 20 μL of ATP and biotinylated Histone H3, and 20 μL of AuroraB FL His for a final volume of 41 μL. The final concentration of Histone H3 is 0.1 μM. The final concentration of ATP is 23 μM (Km(app)=23 μM+/−2.6) and the final concentration of AuroraB is 400 pM. Buffer conditions are as follows: 50 mM HEPES pH 7.5, 5 mM NaCl, 0.5 mM MgCl, 0.5 mM MnCl, 2 mM DTT, 0.05% BSA.
as §1, with “0.001” for “0.0005”, “anti-phosphoHistoneH3” for “anti-phosphoPLK”, “(Eu-anti-His H3)” for “(Eu-anti-PLK)”, “0.064” for “0.02”
as §2, with “eu-anti-His H3” for “eu-anti-PLK”, “Eu-anti-His H3” for “Eu-anti-PLK”
as §3

HeLa cells = assay: HeLa cell 24 hr ploidy assay; assay type: cell-based; conditions: Homo sapiens, 24 hrs treatment, DNA content (ploidy), read-out: 24 h_4N Ploidy EC50—IP (Avg)
Method: HeLa Cell 24 hr Ploidy Assay Protocol
The purpose of this assay is to evaluate the ability of selected individual compounds to induce Deoxyribonucleic acid (DNA) content (ploidy) in cells thought failed cell division. Cell cycle analysis is a rapid and efficient way to evaluate the status of DNA content (ploidy) of a given cell. HeLa cells (1×10^4 HeLa cells/well) in 100 ul of media (MEM+10% FBS) were plated in 96-well plates (Packard View) and cultured for 24 hrs at 37° C. maintained in a 5% CO2 atmosphere. The following day, cells were treated for 24 hrs with inhibitor compounds (10 pt. Dose ranging from 0.0024-1.25 umol/L). The compounds were serially diluted in DMSO (0.25% final concentration). The cells were fixed (3.7% Formaldehyde and 1% glutaraldehyde) and permeabilized (1×PBS with 1% BSA and 0.2% Triton X-100) in preparation for nuclear staining. The well plates were stained for 45 minutes at RT in the dark using Hoechest 33342 nuclear stain at 0.5 ug·ml (Stock of 10 mg/ml, Invitrogen, CA, Cat # H3570). The nuclear stain was removed by aspiration and the cells were washed with wash buffer. A Cellomics Array Scan Vti plate reader was used to acquire the DNA ploidy data of the cells using Cell Cycle bioapplication. Numbers for each of “valid cell count/well”, “% of 4N cells” and “% of >4Ncells” were calculated with the assistance of an Activity Base 5.1ca software and dose curves were generated using an XLFit software. With XLFit, final EC50 IP and EC50 transit values, as well as the Max and Min, were calculated for each curve. Many of the Examples described herein were tested, and fund to be active compounds. Table I includes related biological data in the 24 h cell-ploidy content assay, which may be interpreted using the activity gauge below: […]

T2 sequence (Q96GD4 whole entry): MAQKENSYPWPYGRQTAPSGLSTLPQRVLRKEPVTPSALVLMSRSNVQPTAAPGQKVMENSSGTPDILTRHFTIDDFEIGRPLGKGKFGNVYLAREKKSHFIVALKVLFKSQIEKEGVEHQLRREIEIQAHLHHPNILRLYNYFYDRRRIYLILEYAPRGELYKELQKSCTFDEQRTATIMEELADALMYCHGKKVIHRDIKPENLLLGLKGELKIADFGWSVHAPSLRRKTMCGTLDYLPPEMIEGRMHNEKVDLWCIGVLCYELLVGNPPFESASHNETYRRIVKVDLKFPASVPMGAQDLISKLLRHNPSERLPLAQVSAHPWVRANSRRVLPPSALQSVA

| IC50 (AuroraA-TPX2) [nM] | IC50 (AuroraB) [nM] | EC50 (HeLa cells) [nM] | SMILES |
| --- | --- | --- | --- |
| > 2500 | < 100 | < 100 | Clc1ccc(-c2nnc(Nc3ccc(Sc4ccnc5cc(C6CC6)nn45)cc3)c3ccccc23)cc1 [Example 1, 4-(4-Chlorophenyl)-N-(4-(2-cyclopropylpyrazolo[1,5-a]pyrimidin-7-ylthio)phenyl)phthalazin-1-amine] |
| > 2500 | < 100 | 100 to 500 | Clc1ccn2ncnc(Sc3ccc(Nc4nnc(-c5ccccc5)c5ccccc45)cc3)c12 [Example 29, N-(4-((5-chloropyrrolo[2,1-f][1,2,4]triazin-4-yl)thio)phenyl)-4-phenyl-1-phthalazinamine] |
| < 100 | < 100 | 100 to 500 | Oc1cc2nccc(Sc3ccc(Nc4nnc(-c5ccc(Cl)cc5)c5ccccc45)cc3)n2n1 [Example 5, 7-(4-(4-(4-Chlorophenyl)phthalazin-1-ylamino)phenylthio)pyrazolo[1,5-a]pyrimidin-2-ol] |
| > 2500 | < 100 | 100 to 500 | Clc1ccc(-c2nnc(Nc3ccc(Sc4ncnn5ccc(Cl)c45)cc3)c3ccccc23)cc1 [Example 7, 4-(4-Chlorophenyl)-N-(4-(5-chloropyrrolo[1,2-f][1,2,4]triazin-4-ylthio)phenyl)phthalazin-1-amine] |
